What all share (test): NCI anticancer screen, dose series, 48 h
Experiment [1] deals with 786-0 renal.
For experiment [2], the system named is A498 renal.
Experiment [3] has as its system IGROV1 ovarian.
The test system of experiment [4] is KM12 colon.
In experiment [5] the test system is LOX IMVI melanoma.
Experiment [6] relates to NCI-H522 lung.
The test system of experiment [7] is SF-268 CNS.
Experiment [8] relates to SF-539 CNS.
The subject of experiment [9] is SR leukemia.
Experiment [10] relates to CCRF-CEM leukemia.

The structures appear in SMILES notation.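 Five compound concentrations were applied to cells in 96-well plates for 48 hours; endpoints were derived by simple linear interpolation of the resulting dose-response curve. GI50 is the concentration that inhibits growth by half. TGI denotes the concentration required for complete inhibition of growth.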 Bounds are passed on as bounds.

Take `O=C1C2CC(Cl)C(SSC3CC4C(=O)N(SC(Cl)(Cl)C(Cl)Cl)C(=O)C4CC3Cl)CC2C(=O)N1SC(Cl)(Cl)C(Cl)Cl` (stereo unspecified): the TGI was 3.65 µM in [1]; 7.73 µM in experiment [2]; 3.06 µM in [3]; over 51 µM in experiment [4]; 3.03 µM in experiment [5]; 1.5 µM in experiment [6]. The TGI in [7] amounted to 3.91 µM; in experiment [8], 6.89 µM; in experiment [9], 1.21 µM.

Take `Cc1ccc2c(c1)NC(c1ccc(C(=O)O)cc1)c1cccn1-2` (stereo unspecified): the TGI in experiment [1] is 43.1 µM; in [2] it was 64.9 µM; in [10], over 100 µM; in experiment [4], over 100 µM; in experiment [5], over 100 µM; in experiment [8] it was over 100 µM. Moreover, the TGI in experiment [9] was over 100 µM.

Consider `O=S(=O)(O)CS(=O)(=O)OCCCl`, for which the TGI in [1], in experiment [2], in [3], in experiment [4], in [5] and in experiment [6] was over 100 µM throughout. The TGI in [7], in experiment [8] and in experiment [9] was over 100 µM in each case.

As to `ClC(=Nc1cccc2ccccc12)N(c1ccccc1)c1ccccc1`, the TGI in [1], in [2], in experiment [3], in experiment [4], in [5] and in [6] was over 100 µM throughout. This compound also yielded a TGI in experiment [9] of over 100 µM.

Take `CCOC(=O)/C(C1=N[C@H](C(=O)OCC)CS1)=C(\C)O`: the TGI in [1], in experiment [10], in experiment [3], in [4], in experiment [5] and in experiment [6] was over 100 µM in each case. Besides, the TGI in [7] and in experiment [9] was over 100 µM in each case.

As to `COc1cc2c3c(n(C)c(=O)c2cc1OC)-c1cc2c(cc1/C3=C\CCCCN)OCO2`, the GI50 is 5.23 µM in [1]; 9.53 µM in experiment [2]; 3.12 µM in experiment [3]; 1.95 µM in experiment [4]; 12.9 µM in experiment [5]; 2.02 µM in [6]. In addition, the GI50 in experiment [8] is 2.83 µM; in [9], 3.58 µM. Also, the TGI in experiment [1] came to 19.6 µM; in experiment [2] it was 22.6 µM; in experiment [3], 8.53 µM; in [4], 7.28 µM; in experiment [5], 41.1 µM; in experiment [6], 9.24 µM. Besides, the results for the TGI in experiment [8] and in experiment [9] were 6.23 µM and over 100 µM, respectively.

For `O=C(O)CN(c1ccc(Cl)cc1)S(=O)(=O)c1ccccc1`, the TGI in [1], in [2], in [10], in [3], in experiment [4] and in [5] was over 100 µM in each case. For the same compound, the TGI in experiment [6], in experiment [7] and in [8] was over 100 µM each time.

Consider `O=C1/C(=C\c2ccc(Cl)cc2)CN(C(=S)Nc2ccccc2)C/C1=C\c1ccc(Cl)cc1`, for which the GI50 in [1] is 0.351 µM; in [2], 1.66 µM; in [10] it was 0.453 µM; in experiment [3] it was 0.953 µM; in [4], 0.261 µM; in experiment [5], 0.203 µM. In addition, the GI50 in [6] is 1.82 µM; in [7] it was 0.754 µM; in experiment [8], 0.427 µM. The TGI in experiment [1] is 1.23 µM; in experiment [2], 3.15 µM; in [10], 13.2 µM; in [3], 2.87 µM; in experiment [4], 0.645 µM; in experiment [5] it was 0.432 µM. Besides, the TGI in experiment [6] was determined as 3.84 µM; in experiment [7], 2.26 µM; in experiment [8], 1.54 µM.

In the case of `Cc1cc(NC(=O)C2c3ccccc3C(=O)N(CC(C)C)C2c2cccs2)no1` (stereo unspecified), the GI50 in experiment [1] was over 100 µM; in experiment [10], 82.5 µM; in experiment [3] it was over 100 µM; in experiment [4] it was 48.4 µM; in experiment [5], over 100 µM; in experiment [6], 52.2 µM. For the same compound, the GI50 was over 100 µM in experiment [7], over 100 µM in [8] and 35.5 µM in [9]. Besides, the TGI in experiment [1], in experiment [10], in [3], in experiment [4], in [5] and in experiment [6] was over 100 µM in each case. The TGI in [7], in [8] and in [9] was over 100 µM in each case.

`Cn1nc(-c2ccccc2NC(=O)C(F)(F)F)c(=O)n(C)c1=S`: the TGI in experiment [1] is over 100 µM; in [10], over 100 µM; in experiment [3], over 100 µM; in [4], 80.9 µM; in experiment [5], over 100 µM; in experiment [6], 49.2 µM. In addition, the values for the TGI in [7], in experiment [8] and in experiment [9] were 56 µM, 83.9 µM and 53.7 µM, respectively.

`CC1=C(C(=O)Nc2ccccc2)C(c2ccc3c(c2)OCO3)C(C(=O)Nc2ccccc2)=C(C)N1`: the TGI is over 100 µM in [1]; over 100 µM in [2]; 41 µM in [10]; over 100 µM in experiment [3]; over 100 µM in [4]; 76.5 µM in experiment [5]. The TGI in experiment [6] was 73.3 µM; in [7], over 100 µM; in experiment [8] it was 76 µM.

As for `CCOC(=O)c1cnc(SCc2ccc(Cl)c(Cl)c2)nc1N1CC1`, the GI50 is 3.24 µM in [1]; 2.82 µM in [2]; 2.82 µM in experiment [10]; 2.2 µM in experiment [3]; 3.13 µM in experiment [4]; 1 µM in experiment [5]. The GI50 in experiment [6] is 2.23 µM; in experiment [7] it was 3.05 µM; in experiment [8], 3.3 µM. For the same compound, the TGI in experiment [1] was 14.1 µM; in [2], 14.4 µM; in [10], 28.1 µM; in experiment [4] it was 12.5 µM; in experiment [5] it was 5.73 µM; in experiment [6], 6.88 µM. The TGI in experiment [7] was 12.2 µM; in experiment [8], 12.3 µM.

Values taken from PubChem BioAssay (NCI).
